Test results from patent publication EP4342890A1, “PLATFORM AND SCAFFOLD FOR FAP TARGETING AGENTS” (Erasmus University Rotterdam Medical Center, priority 2022, dated 2024).

Key:
FAP = molecular target: T1, FAP (Homo sapiens, UniProt Q12884); test: In vitro inhibition assay on human FAP (Z-GP-AMC substrate); assay type: biochemical; settings: enzymatic assay; 20 µM Z-GP-AMC, 20 nM FAP; unit inferred
T1 sequence (Q12884 1-760): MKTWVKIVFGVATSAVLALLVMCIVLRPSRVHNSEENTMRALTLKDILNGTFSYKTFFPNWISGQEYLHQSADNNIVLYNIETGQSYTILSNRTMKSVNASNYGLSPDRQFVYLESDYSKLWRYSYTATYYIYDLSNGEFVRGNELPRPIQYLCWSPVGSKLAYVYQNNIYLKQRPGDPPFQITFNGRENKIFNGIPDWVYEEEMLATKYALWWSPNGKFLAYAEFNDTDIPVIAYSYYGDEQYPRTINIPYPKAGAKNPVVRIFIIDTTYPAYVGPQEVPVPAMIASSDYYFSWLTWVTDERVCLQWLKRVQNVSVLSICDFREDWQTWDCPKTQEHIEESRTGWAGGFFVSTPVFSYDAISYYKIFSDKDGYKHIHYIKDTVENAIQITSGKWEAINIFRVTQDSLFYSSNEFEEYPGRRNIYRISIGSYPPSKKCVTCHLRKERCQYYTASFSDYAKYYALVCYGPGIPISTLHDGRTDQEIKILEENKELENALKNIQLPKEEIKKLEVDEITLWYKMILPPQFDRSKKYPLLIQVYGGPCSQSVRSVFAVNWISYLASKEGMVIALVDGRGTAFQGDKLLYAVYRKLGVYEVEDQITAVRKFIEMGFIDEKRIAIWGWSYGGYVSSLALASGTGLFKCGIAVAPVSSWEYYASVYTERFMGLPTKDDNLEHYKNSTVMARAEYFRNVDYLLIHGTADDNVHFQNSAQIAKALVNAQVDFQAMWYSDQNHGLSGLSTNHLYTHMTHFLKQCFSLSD
Protocol: (§1) Enzymatic activity of human FAP (hFAP) and mouse FAP (mFAP) on the Z-GP-AMC substrate was measured at room temperature on a Hidex microplate reader by monitoring the fluorescence at an excitation wavelength of 360 nm and an emission wavelength of 465 nm. The reaction mixture contained 20 µM substrate, 20 nM FAP, assay buffer (50 mM Tris, 100 mM NaCl, 1 mM EDTA, pH 7.4) and tested compound (serial dilution from 10^-6 to 10^-12) in a total volume of 50 µL.

murine FAP = molecular target: T2, murine FAP (Mus musculus, UniProt P97321); test: In vitro inhibition assay on mouse FAP (Z-GP-AMC substrate); assay type: biochemical; settings: enzymatic assay; 20 µM Z-GP-AMC, 20 nM FAP; unit inferred
T2 sequence (P97321 1-761): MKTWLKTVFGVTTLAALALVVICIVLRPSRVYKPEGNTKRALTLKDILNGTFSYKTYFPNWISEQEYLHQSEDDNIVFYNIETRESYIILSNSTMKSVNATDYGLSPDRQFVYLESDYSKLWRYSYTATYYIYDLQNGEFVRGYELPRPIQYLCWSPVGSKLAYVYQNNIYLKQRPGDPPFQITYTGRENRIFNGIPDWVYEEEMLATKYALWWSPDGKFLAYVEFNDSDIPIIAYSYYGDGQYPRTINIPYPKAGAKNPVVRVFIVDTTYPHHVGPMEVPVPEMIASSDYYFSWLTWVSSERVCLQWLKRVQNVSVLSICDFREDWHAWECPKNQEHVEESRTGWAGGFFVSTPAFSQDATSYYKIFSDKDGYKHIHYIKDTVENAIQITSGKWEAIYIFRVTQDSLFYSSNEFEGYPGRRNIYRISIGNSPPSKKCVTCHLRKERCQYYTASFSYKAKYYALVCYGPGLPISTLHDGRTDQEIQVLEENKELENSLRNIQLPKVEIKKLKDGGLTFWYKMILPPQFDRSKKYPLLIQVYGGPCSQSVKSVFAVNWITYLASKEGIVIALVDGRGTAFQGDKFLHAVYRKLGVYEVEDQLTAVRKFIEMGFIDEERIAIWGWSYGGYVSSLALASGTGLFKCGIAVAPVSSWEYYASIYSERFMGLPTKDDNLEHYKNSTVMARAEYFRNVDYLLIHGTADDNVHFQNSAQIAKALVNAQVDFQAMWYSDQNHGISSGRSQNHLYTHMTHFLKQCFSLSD
Protocol: as §1

HT-1080.hFAP tumor = test: Biodistribution study in HT-1080.hFAP tumor bearing mice; assay type: in vivo; settings: indium-111 labelled
Text: Six-week-old male Balb/c nu/nu-specific and opportunistic pathogen-tree (SOPF) mice were housed in individually ventilated cages, with 4 mice per cage. Upon arrival, mice were acclimated for 1 week, with access to food and water ad libitum. Mice were subcutaneously inoculated on the right shoulder with U-87 or HT-1080.hFAP cells (1 × 10^6 cells). Xenografts were allowed to grow until they reached an appropriate size at the start of the studies. All animal experiments were approved by the Animal Welfare Committee of the Erasmus MC and were conducted in agreement with institutional guidelines (license number: AVD101002017867).
Biodistribution studies were performed to determine tumor and organ uptake of the radiolabeled eFAP compounds. Animals (n = 4 for each time point and each compound) were injected intravenously with an average of 100 kBq/0.5 nmol at t=0. At 3 selected time points (1, 4 and 24 h) p.i. blood was collected via cardiac puncture under isoflurane/O2 anesthesia, after which the mice were sacrificed. The tumor and organs of interest (prostate, pancreas, spleen, gall bladder, liver, stomach, small intestine, coecum, colon, adrenals, kidney, lung, heart, salivary glands, muscle, bone, brain were excised, washed in PBS and blotted dry. The blood, tumor, and relevant organs were weighed and measured in a γ-counter. To determine the total injected radioactivity per animal, calibration curve with indium-111 and lutetium-177 were determined. The percentage of injected dose per gram (% ID/g) was determined for each tissue sample and corrected for both the injected volume and % ID present at the injection site (the tail).
Comparison of the biodistribution in selected organs of [^111In]In-FAPI-46 and [^111In]In-eFAP-6 in HT-1080.hFAP tumor bearing mice are given in Figure 8.

[1] = intravenous, HT-1080.hFAP tumor bearing mice

## N#C[C@@H]1CC(F)(F)CN1C(=O)CNC(=O)c1ccnc2c(OCCCNC(=O)CN3CCN(CC(=O)O)CCN(CC(=O)O)CCN(CC(=O)O)CC3)cccc12 [eFAP-6, (S)-2,2',2"-(10-(2-((3-((4-((2-(2-Cyano-4,4-difluoropyrrolidin-1-yl)-2-oxoethyl)carbamoyl)quinolin-8-yl)oxy)propyl)amino)-2-oxoethyl)-1,4,7,10-tetraazacyclododecane-1,4,7-triyl)triacetic acid]
FAP
  IC50: 1.6 ± 0.5 nM
Murine FAP
  IC50: 3.1 ± 2.4 nM
HT-1080.hFAP tumor; compared with the clinical reference
  tumor targeting performance: comparable with that of FAPI-46
HT-1080.hFAP tumor; [1]
  background uptake in healthy organs: low background uptake in healthy organs
  tumor uptake: high and rapid tumor uptake
HT-1080.hFAP tumor; intravenous, mice
  clearance from the body: rapid clearance from the body
